From US20160061841A1, “NRF2-BASED CANCER TREATMENT AND DETECTION METHODS AND USES” (CanBas Co., Ltd., priority 2014, published 2016)
Entries after “also recorded” stand apart in the source; their conditions may differ. Where two headings read alike, the source gives them in different places.

Tests used:
[1] = system: H1703 Control (Ctrl)-sh and Nrf2-sh sub-lines; assay: Cell cycle distribution after SFN, CDDP and CBP501 in H1703 Ctrl-sh and Nrf2-sh sub-lines; type: cell-based, Human; conditions: SFN 24 h prior to 1 h CDDP (2.5 μg/ml)/CBP501 (1 μM)
Experimental: FIGS. 4C, 4D show Analysis of cell cycle distribution changes by using Flow-cytometry (n=4). SFN was subjected 24h to H1703 Control (Ctrl)-sh and Nrf2-sh sub-lines prior to lh treatment of CDDP (2.5 μg/m1)/CBP501 (1 μM). (FIG. 4C) Whole cell cycle distribution. (FIG. 4D) G2-M phase. An asterisk indicates statistical significance (TTEST; p<0.005). Error bars signify standard deviations as determined from four flowcytometric analyses.
Cell cycle analysis. Cells were plated in 24-well plates and incubated for 24 hours. The cells were treated with or without CDDP plus or minus CBP501 at the indicated concentration for the indicated times. The cells were harvested and stained with Krishan's solution (0.1% sodium citrate, 50 μg/ml propidium iodide, 20 μg/ml RNase A, 0.5% NP-40). Stained cells were analyzed by FACSCalibur (Becton Dickinson, Franklin Lakes, N.J.) using CELLQuest software (Becton Dickinson).
Lentivirus infection. Nrf2 shRNA lentivirus particles and Control shRNA lentivirus particles were purchased from SantaCruz. Lentivirus infection was performed according to manufacturer's instructions. Cells (50% confluence) were treated with 5 μg/ml Polybrene (SantaCruz) prior to virus infection. One day after addition of virus, the cells were transferred to fresh medium and cells were selected by treatment with Puromycin (SantaCruz). […]

Nrf2 = conditions: Western blot

C[S+]([O-])CCCCN=C=S (stereo not shown) [SFN, Sulforaphane]
Effect of SFN on CBP501's effect (cell cycle distribution, G2-M) ([1]; H1703 Nrf2 knock-down): the effect of SFN was abrogated | Effect of SFN on CBP501's effect (cell cycle distribution, G2-M) ([1]; H1703 control shRNA): attenuated CBP501's effect; also recorded: cancels the effect of CBP501 | Nrf2 protein levels (Nrf2; H1703 cells transfected with Nrf2 shRNA): did not cause a similar increase | Nrf2 protein levels (Nrf2; H1703 cells transfected with control shRNA): increase in a dose dependent manner
